The source of these data is US20100144809A1, “NOVEL BENZAMIDINE DERIVATIVES USEFUL AS POTASSIUM CHANNEL MODULATORS” (Neuro Search A/S, priority 2007, published 2010).

T1 sequence (Q12791 whole entry): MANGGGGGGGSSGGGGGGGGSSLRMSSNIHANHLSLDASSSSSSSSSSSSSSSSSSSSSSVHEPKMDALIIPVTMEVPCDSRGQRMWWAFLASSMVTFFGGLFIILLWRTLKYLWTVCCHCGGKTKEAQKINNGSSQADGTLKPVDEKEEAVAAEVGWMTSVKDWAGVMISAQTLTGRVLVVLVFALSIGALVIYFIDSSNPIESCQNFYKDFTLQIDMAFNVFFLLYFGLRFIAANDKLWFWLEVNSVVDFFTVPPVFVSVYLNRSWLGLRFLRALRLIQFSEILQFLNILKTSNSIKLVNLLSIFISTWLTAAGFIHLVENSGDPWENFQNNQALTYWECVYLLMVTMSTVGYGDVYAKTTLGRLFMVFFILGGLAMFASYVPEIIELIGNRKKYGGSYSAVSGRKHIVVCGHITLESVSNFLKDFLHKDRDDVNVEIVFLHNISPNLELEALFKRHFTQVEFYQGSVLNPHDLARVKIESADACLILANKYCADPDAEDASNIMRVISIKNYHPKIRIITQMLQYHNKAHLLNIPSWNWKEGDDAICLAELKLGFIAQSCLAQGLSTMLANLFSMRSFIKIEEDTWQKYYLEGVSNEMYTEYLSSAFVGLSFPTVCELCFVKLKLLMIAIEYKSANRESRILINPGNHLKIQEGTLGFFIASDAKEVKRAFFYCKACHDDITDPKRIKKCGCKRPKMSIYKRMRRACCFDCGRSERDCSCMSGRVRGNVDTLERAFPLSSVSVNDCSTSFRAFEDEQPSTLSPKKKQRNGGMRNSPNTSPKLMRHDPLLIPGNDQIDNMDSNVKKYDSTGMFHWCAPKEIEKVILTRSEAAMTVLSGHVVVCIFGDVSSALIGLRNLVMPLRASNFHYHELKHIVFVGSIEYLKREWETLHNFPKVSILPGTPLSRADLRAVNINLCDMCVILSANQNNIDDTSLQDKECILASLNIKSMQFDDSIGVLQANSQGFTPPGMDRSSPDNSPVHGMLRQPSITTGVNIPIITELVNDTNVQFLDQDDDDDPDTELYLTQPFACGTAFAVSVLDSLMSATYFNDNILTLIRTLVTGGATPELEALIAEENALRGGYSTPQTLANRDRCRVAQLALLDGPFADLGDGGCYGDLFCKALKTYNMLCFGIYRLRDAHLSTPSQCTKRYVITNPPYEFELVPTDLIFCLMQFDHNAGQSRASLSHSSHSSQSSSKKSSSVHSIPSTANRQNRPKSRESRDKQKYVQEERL

The assay addresses T1, human BK channels (Homo sapiens, UniProt Q12791).
T1 construct: expressed in transfected cells; host or cells: Xenopus oocytes
Put plainly: Electrophysiological determination of BK current, two-electrode voltage clamp in Xenopus oocytes. It is filed as cell-based. Particulars: 30 μM; increase of BK current relative to the basal current; Xenopus oocytes expressing human BK channels. The protocol:
In this experiment we investigated the influence of the compounds of the invention on the membrane currents when determined electrophysiologically on Xenopus Oocytes capable of expressing human BK channels, and the current through the channels is recorded using the classical two-electrode voltage clamp technique.
The results of these determinations are presented in Table 1 below, and presented as the increase of BK current relative to the basal current.
(In general: Two-electrode voltage clamp is typically applied to oocytes expressing channels or transporters.)
As for `ONC(=Nc1ccc(-c2ccc(C(F)(F)F)cc2)cc1-c1nnn[nH]1)c1cc(C(F)(F)F)cc(C(F)(F)F)c1` [Compound 3, N-Hydroxy-N′-[3-(1H-tetrazol-5-yl)-4′-trifluoromethyl-biphenyl-4-yl]-3,5-bis-trifluoromethyl-benzamidine], the “Relative Increase of BK Current” value came out at 1342%.
For the molecule `NNC(=Nc1ccc(-c2ccc(C(F)(F)F)cc2)cc1-c1nnn[nH]1)c1cc(C(F)(F)F)cc(C(F)(F)F)c1` [Compound 1, N-Amino-N′-[3-(1H-tetrazol-5-yl)-4′-trifluoromethyl-biphenyl-4-yl]-3,5-bis-trifluoromethyl-benzamidine], the “Relative Increase of BK Current” value was found to be 1118%.
`O=c1[nH]nc(-c2cc(C(F)(F)F)cc(C(F)(F)F)c2)n1-c1ccc(-c2ccc(C(F)(F)F)cc2)cc1-c1nn[nH]n1` [Compound 2, 5-(3,5-Bis-trifluoromethyl-phenyl)-4-[3-(2H-tetrazol-5-yl)-4′-trifluoromethyl-biphenyl-4-yl]-2,4-dihydro-[1,2,4]triazol-3-one]: the “Relative Increase of BK Current” value is given as 252%.
